# From patent US20260123631A1, “NATURAL PORPHIN SALT AND USE THEREOF AS PLANT GROWTH REGULATOR AND PLANT IMMUNITY INDUCER” (NANJING BOSTEC BIOLOGICAL ENGINEERING CO., LTD, priority 2022, published 2026)
# Experiments:
# [1] = DTA/TG thermal analysis; assay type: physicochemical; conditions: nitrogen, 10° C./min, 25° C. to 500° C.
# Protocol: Test instrument: Shimadzu DTG-60 DTA-TG synchronous analyzer.
# Test samples: Sodium iron chlorin and iron chlorin.
# Reference: Aluminum oxide.
# Heating rate: 10° C./min.
# Heating range: 25° C. to 500° C.
# Sample weight: 4.3 mg to 4.5 mg.
# Analysis software: ta60WS Ver. 2.11.
# Results were shown in FIG. 1, including a DTA comparison chart (the upper part in FIG. 1) and a TG comparison chart (the lower part in FIG. 1) for the samples.
# [2] = test system: wheat; test: Germination of wheat and growth of seedlings; assay type: in vivo, wheat (Huaimai 35); conditions: for Root length / Root number / Root weight / Seedling height / Seedling weight: wheat seedlings
# Protocol: Method: 3 replicates were set for each treatment. 50 full seeds with a consistent size were selected each time for each sample, disinfected with sodium hypochlorite for 5 min, rinsed with clear water, and placed in a plastic box filled with 100 g of a sand. 25 mL of a prepared sample solution was poured into the plastic box, and the seeds were arranged regularly. The plastic box was covered with a lid, and then incubated in a 25° C. incubator. The germination was determined when a length of a sprout of a wheat seed exceeded a half of a diameter (long axis) of the wheat seed (determination criterion). According to the growth of wheat, the germ exposure of seeds and the number of germinated seeds were recorded every day. On day 6, 10 wheat seedlings were randomly selected, and a root length, a plant height, and a root number were determined. On day 7, a root weight and an aboveground part weight were determined. All index data was produced based on 3 replicates.
# [3] = Dilution and pH determination for sample solutions; assay type: physicochemical
# Protocol: Method: 0.2500 g of a sample was accurately weighed and added to a 25 mL volumetric flask, dissolved with purified water, and diluted to a specified scale to prepare a 1.00% (10,000.0 ppm) initial solution. The initial solution was diluted with purified water in different ratios to prepare a series of solutions with a concentration of 1,000.0 ppm to 0.1 ppm. A pH value of each sample was determined three times.
# [4] = test system: Phytophthora capsici LT263; test: Inducing resistance of Nicotiana benthamiana leaves to phytophthora blight; assay type: in vivo; conditions: inoculated on day 7 and day 10, read 36 h after inoculation
# Protocol: At 36 h after the inoculation, results were observed.
# [5] = test system: Phytophthora capsici; test: Pot experiment: resistance of pepper to phytophthora blight; assay type: in vivo; conditions: 2.0 ppm sprayed on pepper seedlings (Sujiao No. 5), inoculated 3 d later
# Protocol: Preparation of Phytophthora capsici zoospores: Fungal discs were collected at an edge of a newly-activated Phytophthora capsici plate. 6 mm fungal discs were picked with a needle and transferred to an empty Petri dish with a diameter of 9 cm, with fungi facing up and 10 fungal discs for each plate. 15 mL of sterilized water was added to the Petri dish, and the Petri dish was placed in a clean bench under light. The water was changed once every 30 min for 3 times in total. The remaining wastewater was removed by a pipette, and then 10 mL of the V8 liquid medium was added. The Petri dish was incubated in a 25° C. incubator for 24 h in the dark to induce the production of a large number of sporangiospores. Then the Petri dish was placed in a 4° C. refrigerator for 30 min and then incubated in a 25° C. incubator for 30 min, such that a large number of zoospores were released. 10 L of a sample was collected, and observed and counted with a hemocytometer under a microscope. The remaining sample was collected for later use.
# Pepper seedlings at a 4-6 leaf stage were transplanted, with one plant in each pot. […] 3 replicates were set for each treatment, and 18 pots were adopted for each replicate. After the treatment, the observation was conducted regularly once a day. An incidence rate of pepper was recorded, and a disease index and a control efficiency were counted. […]
# [6] = Stability of sample solutions in the dark/under light; assay type: physicochemical
# In short: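 Salt in water, or acidic reference in 30–50% aqueous ethanol, at about 10 ppm; UV absorbance scanned 200–800 nm at 0, 1, 2, 3 h, stored at 25° C dark or under 30,000 lux light. Relative content = max-peak absorbance at each time divided by 0 h value (100%).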
substance,measurement,setting,value
sodium iron chlorin [Example 21],thermal stability compared with the acidic sample,[1],significantly-stronger thermal stability
same,Germination rate of wheat,[2]; 0.0025 ppm,94.0%
same,Root length,[2]; 0.0025 ppm,9.30 cm
same,Root number,[2]; 0.0025 ppm,5.3
same,Root weight,[2]; 0.0025 ppm,0.0953 g
same,Seedling height,[2]; 0.0025 ppm,8.88 cm
same,Seedling weight,[2]; 0.0025 ppm,0.170 g
same,Germination rate of wheat,[2]; 0.0250 ppm,95.3%
same,Root length,[2]; 0.0250 ppm,10.17 cm
same,Root number,[2]; 0.0250 ppm,5.2
same,Root weight,[2]; 0.0250 ppm,0.1027 g
same,Seedling height,[2]; 0.0250 ppm,9.13 cm
same,Seedling weight,[2]; 0.0250 ppm,0.178 g
same,Germination rate of wheat,[2]; 0.2500 ppm,93.3%
same,Root length,[2]; 0.2500 ppm,9.64 cm
same,Root number,[2]; 0.2500 ppm,4.9
same,Root weight,[2]; 0.2500 ppm,0.0867 g
same,Seedling height,[2]; 0.2500 ppm,7.95 cm
same,Seedling weight,[2]; 0.2500 ppm,0.145 g
same,pH,[3]; 0.1 ppm in purified water,(6.79)
same,pH,[3]; 1.0 ppm in purified water,(6.89)
same,pH,[3]; 10.0 ppm in purified water,(7.23)
same,pH,[3]; 20.0 ppm in purified water,(7.42)
same,pH,[3]; 30.0 ppm in purified water,(7.51)
same,pH,[3]; 100.0 ppm in purified water,(8.34)
same,pH,[3]; 1000.0 ppm in purified water,(9.71)
same,pH,[3]; 10000.0 ppm in purified water,(10.41)
same,lesion area after LT263 inoculation compared with DDW,[4]; 2.0 ppm injected into leaves,significantly reduce a lesion area
same,lesion area after LT263 inoculation compared with DDW,[4]; 20.0 ppm injected into leaves,significantly reduce a lesion area
same,Control effect,[5],71.89%
same,Disease index,[5],24.36
same,Relative content,"[6]; in the dark, 25° C., 0 h",100.0%
same,Relative content,"[6]; in the dark, 25° C., 1 h",99.51%
same,Relative content,"[6]; in the dark, 25° C., 2 h",99.60%
same,Relative content,"[6]; in the dark, 25° C., 3 h",99.43%
same,Relative content,"[6]; under light 30,000 lux, 0 h",100.00%
same,Relative content,"[6]; under light 30,000 lux, 1 h, salts in water, acidic reference in 30% to 50% ethanol",69.35%
same,Relative content,"[6]; under light 30,000 lux, 2 h, salts in water, acidic reference in 30% to 50% ethanol",59.05%
same,Relative content,"[6]; under light 30,000 lux, 3 h, salts in water, acidic reference in 30% to 50% ethanol",54.02%
